Results on one molecule are retold here after patent US20250289994A1, “METHODS FOR IMPROVING HYDROCARBON PRODUCTION FROM A SUBTERRANEAN FORMATION” (CHEVRON U.S.A. INC., priority 2024, published 2025).

The series is described as follows: Static partitioning test for DME in brine and oil. Type of series: physicochemical. The settings on record: room temperature, >12 hours equilibration, 150 psi. From the text: To measure partitioning of the miscible solvent in contact with oil and brine for a particular chemical concentration, salinity of aqueous phase, oil type, temperature, and pressure.
Load accumulator #1 with brine and accumulator #2 with oil. Apply vacuum to sapphire cell #1 and sapphire cell #2 on the loading side of the piston. Fill the opposite side with water or lab oil. Prepare loading loop with a known volume with liquid DME at room temperature (pressure >100 psi) to ensure a target concentration of DME when injected. Connect loading loop to sapphire cell #1 (vacuum side) and to accumulator #1. Connect the opposite side of the sapphire (water side) to BPR to keep pressure inside the cell at 150 psi. Then, displace DME from the loop with brine and inject into the sapphire cell #1. Isolate and disconnect the sapphire cell #1. Then, rock the cell until liquid DME and brine get properly mixed and homogenized. Equilibrate aqueous mix for a couple of hours. Connect the accumulator #2 with the sapphire cell #2, and the sapphire cell to the BPR. Then, inject oil into the sapphire cell #2. The volume of the injected oil is the one for the desired aqueous to oil ratio (i.e. 50/50 aqueous to oil by volume). Connect the sapphire cell #1 (DME in aqueous side) to the sapphire cell #2 (oil side) and inject DME in aqueous side to cell #2. The volume of the injected aqueous phase is the one for the desired aqueous to oil ratio. The pressure inside the sapphire cell # is controlled by BPR at 150 psi. Isolate and disconnect the sapphire cell #2. Then, rock the cell until liquid aqueous and oil get properly mixed. Let the cell equilibrate for 12 hours at room temperature (˜70° F.). Prepare a solution of 1:1 by volume of deionized water and methanol. Collect a sample of aqueous phase (DME in brine) from cell #2 and mix it with methanol solution in a volumetric proportion of 1:1. Measure DME concentration in aqueous mixture from previous step via gas chromatography (GC). Then, calculate partitioning of DME in between brine and oil phase, this is the partitioning coefficient.
KDME=DME partitioning coefficient; CDME,aq=mass fraction of DME in aqueous phase at equilibrium; and CDME,oil=mass fraction of DME in oleic phase at equilibrium.
Alternatively, to measuring DME concentration via GC and after isolating and disconnecting sapphire cell #2, both aqueous phase and oleic phase could be separated, and then individually taken to a PVT cell at 1 atm and 70° F. After DME evolves from each phase as gas, amounts of evolved DME could be measured and partitioning coefficient calculated.

As for `COC` [DME, dimethyl ether], the DME partition coefficient reads like this: (0.5% DME + Methanol, Volatile Oil, salinity 115,000 ppm) 1.13; (0.5% DME, Volatile Oil, salinity 0 - DI water) 0.81; (0.5% DME, Volatile Oil, salinity 103,000 ppm) 1.15; (0.5% DME, Volatile Oil, salinity 150,000 ppm) 1.27; (0.5% DME, Volatile Oil, salinity 300,000 ppm) 1.26; (1% DME + Methanol, Black Oil, salinity 115,000 ppm) 1.87. The DME partition coefficient (1% DME + Methanol, Volatile Oil, salinity 115,000 ppm) was 2.4.
